Entries after “also recorded” stand apart in the source; their conditions may differ. Counter-ions that a name gives are not always drawn.
Columns and labels:
[1] = tested on: SARS-CoV-2_S (D614G)-pseudotyped lentivirus entry into ACE2-overexpressing Capan2 cells; type: cell-based
[2] = tested on: SARS-CoV-2_S (D614G)-pseudotyped lentivirus entry into ACE2-overexpressing 293T cells; type: cell-based

Compound	inhibiting effect on entry of the pseudovirus [1]	inhibiting effect on entry of the pseudovirus (EGFP/mCherry signal ratio) [1]	inhibiting effect on entry of the pseudovirus (EGFP/mCherry signal ratio) [2]
O=C(OC[C@H]1O[C@@H](OC(=O)c2cc(O)c(O)c(OC(=O)c3cc(O)c(O)c(O)c3)c2)[C@H](OC(=O)c2cc(O)c(O)c(OC(=O)c3cc(O)c(O)c(O)c3)c2)[C@@H](OC(=O)c2cc(O)c(O)c(OC(=O)c3cc(O)c(O)c(O)c3)c2)[C@@H]1OC(=O)c1cc(O)c(O)c(OC(=O)c2cc(O)c(O)c(O)c2)c1)c1cc(O)c(O)c(OC(=O)c2cc(O)c(O)c(O)c2)c1 [tannic acid, reference compound]	only a mild inhibiting effect; also recorded: did not observe any significant inhibiting effect		
N=C(N)c1ccc2cc(OC(=O)c3ccc(N=C(N)N)cc3)ccc2c1 [Nafamostat mesylate, reference compound]		exhibited an inhibiting effect; also recorded: block the pseudoviruses from entering	significant inhibiting effects
O=C1c2ccccc2C(=O)c2ccccc21 [TS-1276, anthraquinone]		did not present any significant inhibiting effects	significant inhibiting effects
COc1ccc2c3ccnc4ccc(=O)n(c2c1)c43 [TS-984, 9-Methoxycanthin-6-one]		strongest and was dose-dependent; also recorded: greatly reduce the EGFP/mCherry signal ratio; also recorded: effectively block the entry of pseudovirus into Capan2 cells with ACE2 overexpression in a dose-dependent manner	significant inhibiting effects; also recorded: greatly reduce the EGFP/mCherry signal ratio

Reference: paper PMC9281089 (Journal of Translational Medicine, 2022)
